Earlier results, collected in patent publication US5714511A, “Selective prevention of organ injury in sepsis and shock using selection release of nitric oxide in vulnerable organs” (The United States of America as represented by the …, priority 1995, dated 1998).

Columns and labels:
[1] = test system: hemorrhagic shock in rats

Compound	solubility in aqueous media	inhibition of DNA synthesis (DNA synthesis)	protective effect in hemorrhagic shock [1]
Nitric oxide	limited solubility in aqueous media		
CC(=O)N[C@H](C(=O)O)C(C)(C)SN=O [SNAP, S-nitroso-N-acetyl-penicillamine]		effective at inhibiting DNA synthesis	significant protective effects of SNAP in hemorrhagic shock in rats
